# Source: paper PMC10945556, “Design, Synthesis, and Antifungal Activity of 3-Substituted-2(5H)-Oxaboroles” (ACS Medicinal Chemistry Letters, 2024)
# System: C. albicans
# Assay: MIC, microbroth dilution
# Format: cell-based, Candida albicans
# Conditions: Candida albicans
row,SMILES,MIC [µg/mL]
1,Cc1cccc(C2=CCOB2O)c1 [Compound 6u],> 50
2,CC(C)(C)c1ccc(C2=CCOB2O)cc1 [Compound 6w],> 50
3,CCCc1ccc(C2=CCOB2O)cc1 [Compound 6x],> 50

# Same assay, conditions: Candida albicans, value in parentheses
row,SMILES,MIC [µM]
1,Cc1cccc(C2=CCOB2O)c1 [Compound 6u],> 287
2,CC(C)(C)c1ccc(C2=CCOB2O)cc1 [Compound 6w],> 232
3,CCCc1ccc(C2=CCOB2O)cc1 [Compound 6x],> 248

# System: B. cereus
# Assay: MIC, microbroth dilution
# Format: cell-based, Bacillus cereus
# Conditions: Bacillus cereus
row,SMILES,MIC [µg/mL]
1,Cc1cccc(C2=CCOB2O)c1 [Compound 6u],> 50
2,CC(C)(C)c1ccc(C2=CCOB2O)cc1 [Compound 6w],> 50
3,CCCc1ccc(C2=CCOB2O)cc1 [Compound 6x],> 50

# Same assay, conditions: Bacillus cereus, value in parentheses
row,SMILES,MIC [µM]
1,Cc1cccc(C2=CCOB2O)c1 [Compound 6u],> 287
2,CC(C)(C)c1ccc(C2=CCOB2O)cc1 [Compound 6w],> 232
3,CCCc1ccc(C2=CCOB2O)cc1 [Compound 6x],> 248

# System: T. mentagrophytes
# Assay: MIC, dose-dependent solid media assay
# Format: cell-based, Trichophyton mentagrophytes
# Conditions: Trichophyton mentagrophytes
row,SMILES,MIC [µg/mL]
1,Cc1cccc(C2=CCOB2O)c1 [Compound 6u],42 ± 8
2,CC(C)(C)c1ccc(C2=CCOB2O)cc1 [Compound 6w],> 50
3,CCCc1ccc(C2=CCOB2O)cc1 [Compound 6x],50

# Same assay, conditions: Trichophyton mentagrophytes, value in parentheses
row,SMILES,MIC [µM]
1,Cc1cccc(C2=CCOB2O)c1 [Compound 6u],241
2,CC(C)(C)c1ccc(C2=CCOB2O)cc1 [Compound 6w],> 232
3,CCCc1ccc(C2=CCOB2O)cc1 [Compound 6x],248

# System: A. flavus
# Assay: MIC, dose-dependent solid media assay
# Format: cell-based, Aspergillus flavus
# Conditions: Aspergillus flavus
row,SMILES,MIC [µg/mL]
1,Cc1cccc(C2=CCOB2O)c1 [Compound 6u],33 ± 8
2,CC(C)(C)c1ccc(C2=CCOB2O)cc1 [Compound 6w],> 50
3,CCCc1ccc(C2=CCOB2O)cc1 [Compound 6x],> 50

# Same assay, conditions: Aspergillus flavus, value in parentheses
row,SMILES,MIC [µM]
1,Cc1cccc(C2=CCOB2O)c1 [Compound 6u],190
2,CC(C)(C)c1ccc(C2=CCOB2O)cc1 [Compound 6w],> 232
3,CCCc1ccc(C2=CCOB2O)cc1 [Compound 6x],> 248

# System: S. cerevisiae
# Assay: MIC, microbroth dilution
# Format: cell-based, Saccharomyces cerevisiae
# Conditions: Saccharomyces cerevisiae
row,SMILES,MIC [µg/mL]
1,Cc1cccc(C2=CCOB2O)c1 [Compound 6u],21 ± 4
2,CC(C)(C)c1ccc(C2=CCOB2O)cc1 [Compound 6w],> 50
3,CCCc1ccc(C2=CCOB2O)cc1 [Compound 6x],10.4 ± 2

# Same assay, conditions: Saccharomyces cerevisiae, value in parentheses
row,SMILES,MIC [µM]
1,Cc1cccc(C2=CCOB2O)c1 [Compound 6u],121
2,CC(C)(C)c1ccc(C2=CCOB2O)cc1 [Compound 6w],> 232
3,CCCc1ccc(C2=CCOB2O)cc1 [Compound 6x],51.5

# System: P. aeruginosa
# Assay: MIC, microbroth dilution
# Format: cell-based, Pseudomonas aeruginosa
# Conditions: Pseudomonas aeruginosa
row,SMILES,MIC [µg/mL]
1,Cc1cccc(C2=CCOB2O)c1 [Compound 6u],> 50
2,CC(C)(C)c1ccc(C2=CCOB2O)cc1 [Compound 6w],> 50
3,CCCc1ccc(C2=CCOB2O)cc1 [Compound 6x],> 50

# Same assay, conditions: Pseudomonas aeruginosa, value in parentheses
row,SMILES,MIC [µM]
1,Cc1cccc(C2=CCOB2O)c1 [Compound 6u],> 287
2,CC(C)(C)c1ccc(C2=CCOB2O)cc1 [Compound 6w],> 232
3,CCCc1ccc(C2=CCOB2O)cc1 [Compound 6x],> 248

# System: Methicillin resistant Staphylococcus aureus
# Assay: MIC, microbroth dilution
# Format: cell-based
# Conditions: Staphylococcus aureus, S. aureus (MRSA)
row,SMILES,MIC [µg/mL]
1,Cc1cccc(C2=CCOB2O)c1 [Compound 6u],> 50
2,CC(C)(C)c1ccc(C2=CCOB2O)cc1 [Compound 6w],> 50
3,CCCc1ccc(C2=CCOB2O)cc1 [Compound 6x],> 50

# Same assay, conditions: Staphylococcus aureus, S. aureus (MRSA), value in parentheses
row,SMILES,MIC [µM]
1,Cc1cccc(C2=CCOB2O)c1 [Compound 6u],> 287
2,CC(C)(C)c1ccc(C2=CCOB2O)cc1 [Compound 6w],> 232
3,CCCc1ccc(C2=CCOB2O)cc1 [Compound 6x],> 248

# System: rat myoblast cells (H9c2)
# Assay: Cell viability assay against H9c2 cell line
# Format: cell-based
# Conditions: concentrations up to 100 μM, 24 h
# Method: (§1) In general, very little growth inhibition was observed against either Gram-positive or Gram-negative bacterial pathogens. […] The SAR for the antibacterial is dissimilar to that observed for the antifungal properties.
# (§2) Figure 3 (A) Cell viability assay against H9c2 cell line at 100 μM for 24 h (normalized to PBS no treatment), (B) Hemolytic assay at 50 and 100 μM for 1 h (normalized to triton X-100 positive control). Error bars in both graphs represent standard error of mean (SEM) of replicates (n = 3).
row,SMILES,cytotoxic effects against rat myoblast cells (H9c2)
1,Cc1cccc(C2=CCOB2O)c1 [Compound 6u],none
2,CC(C)(C)c1ccc(C2=CCOB2O)cc1 [Compound 6w],none
3,CCCc1ccc(C2=CCOB2O)cc1 [Compound 6x],none

# System: E. coli
# Assay: MIC, microbroth dilution
# Format: cell-based, Escherichia coli
# Conditions: not given
row,SMILES,MIC EC [µg/mL]
1,CCCc1ccc(C2=CCOB2O)cc1 [Compound 6x],21 ± 4

# Same assay, conditions: Escherichia coli
row,SMILES,MIC [µg/mL]
1,Cc1cccc(C2=CCOB2O)c1 [Compound 6u],> 50
2,CC(C)(C)c1ccc(C2=CCOB2O)cc1 [Compound 6w],> 50
3,CCCc1ccc(C2=CCOB2O)cc1 [Compound 6x],20 to 50

# Same assay, conditions: Escherichia coli, value in parentheses
row,SMILES,MIC [µM]
1,Cc1cccc(C2=CCOB2O)c1 [Compound 6u],> 287
2,CC(C)(C)c1ccc(C2=CCOB2O)cc1 [Compound 6w],> 232
3,CCCc1ccc(C2=CCOB2O)cc1 [Compound 6x],104

# System: E. coli
# Assay: Growth inhibition screen in liquid medium
# Format: cell-based, Escherichia coli
# Conditions: screen at 50 and 12.5 μg/mL
# Excerpt: These included four bacterial pathogens [Bacillus cereus (Gram-positive), Methicillin resistant Staphylococcus aureus (Gram-positive), Pseudomonas aeruginosa (Gram-negative), and Escherichia coli (Gram-negative)], a fungal pathogen (Candida albicans), and a yeast (Saccharomyces cerevisiae). […] Commercially available tavaborole, cycloheximide, and nystatin were also screened as benchmarks. […] In addition, the 3-substituted oxaboroles were screened in a dose-dependent manner on solid media against three spore-forming fungal pathogens: Trichophyton mentagrophytes, Penicillium chrysogenum, and Aspergillus flavus (Figures 2B and S152–S192). The compounds could not be screened for growth inhibition in liquid media against these pathogens due to clumping of the mycelia, which impeded the absorbance readings.
row,SMILES,growth inhibition of E. coli
1,CCCc1ccc(C2=CCOB2O)cc1 [Compound 6x],inhibited the growth

# System: not listed separately
# Assay: Hemolytic assay
# Format: cell-based
# Conditions: 50 and 100 μM for 1 h
# Method: as §1, §2
row,SMILES,hemolytic activity
1,Cc1cccc(C2=CCOB2O)c1 [Compound 6u],none possessed hemolytic activity
2,CC(C)(C)c1ccc(C2=CCOB2O)cc1 [Compound 6w],none possessed hemolytic activity
3,CCCc1ccc(C2=CCOB2O)cc1 [Compound 6x],none possessed hemolytic activity

# System: P. chrysogenum
# Assay: MIC, dose-dependent solid media assay
# Format: cell-based, Penicillium chrysogenum
# Conditions: Penicillium chrysogenum
row,SMILES,MIC [µg/mL]
1,Cc1cccc(C2=CCOB2O)c1 [Compound 6u],25
2,CC(C)(C)c1ccc(C2=CCOB2O)cc1 [Compound 6w],12.5
3,CCCc1ccc(C2=CCOB2O)cc1 [Compound 6x],12.5

# Same assay, conditions: Penicillium chrysogenum, value in parentheses
row,SMILES,MIC [µM]
1,Cc1cccc(C2=CCOB2O)c1 [Compound 6u],144
2,CC(C)(C)c1ccc(C2=CCOB2O)cc1 [Compound 6w],57.9
3,CCCc1ccc(C2=CCOB2O)cc1 [Compound 6x],61.9
